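Briefly, cells in 96-well plates were exposed to five compound concentrations for 48 h, and endpoints were estimated by linear interpolation. GI50 marks 50% less growth. TGI: total growth inhibition.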
Experiments:
Test in all cases: NCI anticancer screen, dose series, 48 h
[1] = tested on: HCT-116 colon
[2] = tested on: OVCAR-8 ovarian
[3] = tested on: SF-268 CNS
[4] = tested on: RXF 393 renal
[5] = tested on: IGROV1 ovarian
[6] = tested on: HOP-62 NSCLC
[7] = tested on: A549 NSCLC
[8] = tested on: HOP-92 NSCLC
[9] = tested on: NCI-H460 lung
[10] = tested on: CAKI-1 renal
[11] = tested on: HCC-2998 colon
[12] = tested on: T-47D breast
[13] = tested on: MALME-3M melanoma
[14] = tested on: SK-MEL-5 melanoma
[15] = tested on: HCT-15 colon
[16] = tested on: A498 renal
[17] = tested on: SR leukemia
[18] = tested on: NCI-H522 lung
[19] = tested on: UACC-257 melanoma
[20] = tested on: PC-3 prostate
[21] = tested on: HL-60(TB) leukemia
[22] = tested on: SK-MEL-2 melanoma
[23] = tested on: MCF7 breast
[24] = tested on: SW-620 colon
[25] = tested on: SK-MEL-28 melanoma
[26] = tested on: LOX IMVI melanoma
[27] = tested on: SNB-75 CNS
[28] = tested on: NCI/ADR-RES ovarian
[29] = tested on: NCI-H226 lung
[30] = tested on: MOLT-4 leukemia
[31] = tested on: BT-549 breast
[32] = tested on: SF-295 CNS
[33] = tested on: UACC-62 melanoma
[34] = tested on: OVCAR-5 ovarian
[35] = tested on: SF-539 CNS
[36] = tested on: UO-31 renal
[37] = tested on: RPMI-8226 leukemia
[38] = tested on: TK-10 renal
[39] = tested on: SK-OV-3 ovarian
[40] = tested on: HS 578T breast
[41] = tested on: HT29 colon
[42] = tested on: DU-145 prostate
[43] = tested on: EKVX NSCLC
[44] = tested on: 786-0 renal
[45] = tested on: ACHN renal
[46] = tested on: MDA-MB-435
[47] = tested on: MDA-MB-231 breast
[48] = tested on: K-562 leukemia
[49] = tested on: U251 CNS
[50] = tested on: KM12 colon
[51] = tested on: NCI-H23 lung
[52] = tested on: SNB-19 CNS
[53] = tested on: COLO 205 colon
[54] = tested on: M14 melanoma
[55] = tested on: OVCAR-4 ovarian
[56] = tested on: SN12C renal
[57] = tested on: CCRF-CEM leukemia

NC(=S)n1c(=O)n(-c2cccc(C(F)(F)F)c2)c(=O)c2cc(-c3ccc(F)cc3F)ccc21
GI50 [1]: 953 nM | TGI [1]: 2300 nM | GI50 [2]: 1290 nM | TGI [2]: 6480 nM | GI50 [3]: 2000 nM | TGI [3]: 11300 nM | GI50 [4]: 1220 nM | TGI [4]: 3090 nM | GI50 [5]: 1990 nM | TGI [5]: 13000 nM | GI50 [6]: 1830 nM | TGI [6]: 4440 nM | GI50 [7]: 2730 nM | TGI [7]: 11300 nM | GI50 [8]: 191 nM | TGI [8]: 741 nM | GI50 [9]: 763 nM | TGI [9]: 5410 nM | GI50 [10]: 1610 nM | TGI [10]: 5860 nM | GI50 [11]: 2960 nM | TGI [11]: 9270 nM | GI50 [12]: 1540 nM | TGI [12]: 6090 nM | GI50 [13]: 1510 nM | TGI [13]: 4950 nM | GI50 [14]: 333 nM | TGI [14]: 1140 nM | GI50 [15]: 769 nM | TGI [15]: 2690 nM | GI50 [16]: 341 nM | TGI [16]: 1220 nM | GI50 [17]: 984 nM | TGI [17]: 5150 nM | GI50 [18]: 428 nM | TGI [18]: 2870 nM | GI50 [19]: 1070 nM | TGI [19]: 4000 nM | GI50 [20]: 1050 nM | TGI [20]: 4110 nM | GI50 [21]: 1600 nM | TGI [21]: 7260 nM | GI50 [22]: 590 nM | TGI [22]: 2350 nM | GI50 [23]: 1700 nM | TGI [23]: 8180 nM | GI50 [24]: 1600 nM | TGI [24]: 4200 nM | GI50 [25]: 1430 nM | TGI [25]: 6240 nM | GI50 [26]: 1540 nM | TGI [26]: 3170 nM | GI50 [27]: 1500 nM | TGI [27]: 5170 nM | GI50 [28]: 1970 nM | TGI [28]: 9410 nM | GI50 [29]: 1420 nM | TGI [29]: 3890 nM | GI50 [30]: 1660 nM | TGI [30]: 4840 nM | GI50 [31]: 1180 nM | TGI [31]: 2620 nM | GI50 [32]: 1750 nM | TGI [32]: 3620 nM | GI50 [33]: 379 nM | TGI [33]: 1610 nM | GI50 [34]: 3540 nM | TGI [34]: 17500 nM | GI50 [35]: 1920 nM | TGI [35]: 8790 nM | GI50 [36]: 2300 nM | TGI [36]: 8580 nM | GI50 [37]: 575 nM | TGI [37]: 3110 nM | GI50 [38]: 4050 nM | TGI [38]: 8470 nM | GI50 [39]: 1210 nM | TGI [39]: 3600 nM | GI50 [40]: 1110 nM | TGI [40]: 4450 nM | GI50 [41]: 3340 nM | TGI [41]: 11900 nM | GI50 [42]: 2740 nM | TGI [42]: 13700 nM | GI50 [43]: 2390 nM | TGI [43]: 7950 nM | GI50 [44]: 2000 nM | TGI [44]: 4390 nM | GI50 [45]: 2270 nM | TGI [45]: 10500 nM | GI50 [46]: 1560 nM | TGI [46]: 5460 nM | GI50 [47]: 1820 nM | TGI [47]: 5950 nM | GI50 [48]: 725 nM | TGI [48]: 14100 nM | GI50 [49]: 1740 nM | TGI [49]: 9310 nM | GI50 [50]: 2260 nM | TGI [50]: 6210 nM | GI50 [51]: 1180 nM | TGI [51]: 5100 nM | GI50 [52]: 1290 nM | TGI [52]: 22900 nM | GI50 [53]: 1760 nM | TGI [53]: 3360 nM | GI50 [54]: 1600 nM | TGI [54]: 4230 nM | GI50 [55]: 2390 nM | TGI [55]: 22500 nM | GI50 [56]: 1260 nM | TGI [56]: 6300 nM | GI50 [57]: 2270 nM | TGI [57]: 11500 nM

From PubChem BioAssay (NCI)
